System: Plasmodium vinckei petteri (strain 279 BY)
Assay: In vivo measurement of the antimalarial activity in mice infected with Plasmodium vinckei petteri (4-day ip treatment)
Parameters: species or system Plasmodium vinckei petteri in female Swiss mice
Excerpt: • ED50=dose in mg/kg/day which brings about a 50% decrease in parasitaemia, observed in the infected mice, • ED90=dose in mg/kg/day which brings about a 90% decrease in parasitaemia, observed in the infected mice, • ip=intraperitoneal administration, • iv=intravenous administration, • ir=intrarectal administration.
On day 0 (D0), female “Swiss” mice (OF1, 22-26 g) (Charles River Laboratories France, 59 rue de la Paix, 76410 Saint-Aubin-les-Elbeuf) are inoculated, by iv injection in the caudal vein, with 10^8 parasitized erythrocytes suspended in 200 μl of NaCl (0.9%). The parasites used are of Plasmodium vinckei petteri type (strain 279 BY, supplied by Dr. I Landau, Paris, France).
The injection of 10^8 parasitized erythrocytes results, at day 1 (D1), in a parasitemia level of between 5% and 10% (7.2%±0.2%). The Plasmodium vinckei petteri strain is maintained by weekly infection in mice with 10^7 to 10^8 parasitized erythrocytes suspended in a saline phosphate buffer (0.9%) (infection by intraperitoneal administration).
The products are dissolved in a 0.3M phosphate buffer (pH=8.1). The final concentration of the T3 solution is between 40 and 200 mg/l depending on the dose. The final concentration of the artesunate solution is between 100 and 500 mg/l depending on the dose. The products are administered ip. The administration volume is of the order of 100 μl, but depends on the weight of the mouse.
The mice are treated once a day for 4 days, on days D1, D2, D3 and D4 (Peters, W., J. H. Portus, and B. L. Robinson. 1975. The chemotherapy of rodent malaria. XXII. The value of drug-resistant strains of P. berghei in screening for blood schizonticidal activity. Ann. Trop. Med. Parasitol. 69:155-171; and: Ancelin M L, Calas M., Bonhoure A., Herbute S, and Vial H., In vivo antimalarial activity of mono and bis quaternary ammonium salts interfering with Plasmodium phospholipid metabolism. Antimicrob. Agents Chemother., 2003, 47, 2598-2605). Four mice are used per dose.
The animal is given, by ip administration, according to the case, T3, artesunate or the mixture of the two active ingredients solubilized.
At the 5th day, a few drops of blood are taken from the tail of the mouse in order to determine the parasitemia by FACS (fluorescence-activated cell sorter) and to perform a blood smear. The parasitemia is first determined by FACS on 20 000 cells. The red blood cells taken for the FACS are fixed with glutaraldehyde and then labeled with a fluorochrome (YOYO1®) which labels DNA and therefore only the parasitized cells (Barkan, D., Ginsburg, H., and Golenser, J. 2000. Optimisation of flow cytometric measurement of parasitaemia in plasmodium-infected mice. Int. J. Parasitol. 30: 649-653). The parasitemias below 15% are subsequently recounted on smears. The smears are fixed with methanol and then stained with Giemsa stain. The number of parasitized blood cells is counted under a microscope. The parasitemia is expressed as percentage of infected erythrocytes present in the specimen, on a sample of 2000 cells. The ED50 and ED90 values are determined at D5. The parasitemia is determined from the 1st to the 10th day of treatment, and then at the 15th, 22nd and 47th days.
The curative dose is the dose of product which ensures the survival of the entire treated batch of animals after one month.
0% inhibition corresponds to the mean of the parasitemias observed in the nontreated, infected mice. 100% inhibition corresponds to a very weak or null parasitemia, below 0.01%. The ED50 values are determined by linear interpolation of the dose-response curve represented in logarithm of concentrations.

SMILES: C[C@H]1[C@H](OC(=O)CCC(=O)O)O[C@@H]2O[C@@]3(C)CC[C@H]4[C@H](C)CC[C@@H]1[C@@]24OO3 [artesunate, reference compound]
- parasitaemia D5 (Artesunate 2.5 mg/kg/d alone, ip D1-D4, D5): 53.20%
- parasitaemia D1 (Artesunate 2.5 mg/kg/d alone, ip, D1 (first treatment day)): 7.00%
- parasitaemia D2 (Artesunate 2.5 mg/kg/d alone, ip, D2 (24 h after first administration)): 32.90%
- activity on the parasitemia at 4 days (artesunate 0.5 mg/kg/d): completely inactive
- complete recovery after one month (artesunate alone 2.5 mg/kg/day): does not
- effect on parasitemia on the first day and following days (artesunate alone, at the doses tested, ip (FIG. 1)): does not reduce the parasitemia
- ED50 (dose giving 50% decrease in parasitaemia, ip once a day D1-D4, determined at D5, compound alone): >2.5 mg/kg/day

— US8304440B2, “Combination of a bis-thiazolium salt or a precursor thereof and artemisinin or a derivative thereof for treating acute malaria” (Sanofi, priority 2008, dated 2012)
